Experimental data taken from patent publication US20120129869A1, “PHOSPHORYLATION AND MUTATIONS OF ANAPLASTIC LYMPHOMA KINASE AS A DIAGNOSTIC AND THERAPEUTIC TARGET IN LUNG CANCER” (Academia Sinica, priority 2010, published 2012).

Experiments:
[1] = system: H694R and E1384K ALK H1299 transfectants xenograft; experiment: In vivo xenograft tumor formation assay; design: species or system BALB/c NU mice; details: ALK mutations-bearing mice, 1 mg/kg/day intravenously, versus DMSO control
Experimental: (§1) Animal protocol was approved by the Institutional Animal Safety Committee. A total of 1×10^6 ALK-wild type or mutants expressed H1299 transfectants were mixed with matrigel (BD) and then subcutaneously injected into the right flank of four-week-old BALB/c NU mice. For WHI-P154 treatments, the nude mice were randomly divided into two groups when the mean tumor volume reached 20-50 mm^3. DMSO or WHI-P154 (1 mg/kg/day) was intravenously injected daily. The tumor volumes were measured weekly and calculated according to the formula: volume=length×width^2×0.52.

[2] = system: GFP-labeled H1299 transfectants of H694R and E1384K ALK; experiment: In vivo metastasis assay (tail vein injected lung metastasis model); design: species or system nude mice; details: 1 mg/kg/day intravenously
Experimental: In order to examine the in vivo metastatic capability, ALK wild type or mutations expressed H1299 transfectants were infected with GFP-lentivirus to generate the GFP fluorescence-labeled cells. A total of 2×10^6 cells were injected into nude mice through tail vein for measuring lung metastasis. For investigation of the tumor suppressive effects using ALK inhibitor, the nude mice were intravenously injected daily with WHI-P154 (1 mg/kg/day) after cell inoculation for 14 days. The survival rate was recorded daily and scarified the rest mice after 105 days. The pulmonary metastasis of GFP-labeled H1299 transfectants were visualized by fluorescence stereomicroscope.

phosphorylated-Y1604 ALK [3] = experiment: IHC staining of phosphorylated-Y1604 ALK in xenograft tumor sections; assay type: in vivo, nude mice; details: H694R and E1384K xenograft tumor sections, versus DMSO control
Experimental: Human lung cancer tissue arrays containing 37 normal lung and 263 lung cancer sections from Pantomics (Luc961, Luc962, Luc1501, Luc1502 and Luc1503) were deparaffinized and the frozen tumor sections from the xenograft nude mice were fixed in 3% formaldehyde solution. All sections were treated in 3% H2O2 buffer for 30 minutes to inactivate the endogenous peroxidase activities, and then treated with 0.01M sodium citrate buffer for antigen retrieval. After blocking with 10% normal goat serum, these sections were reacted with specific antibodies at 4° C. for overnight. Subsequently, these sections were incubated with Super Picture HRP polymer conjugate secondary antibody (Zymed Laboratories), and then stained with DAB chromagen (Zymed Laboratories). These sections were also stained with Hematoxylin (DAKO).
as §1

[4] = system: H1299 transfectants of wild type, H694R and E1384K ALKs; experiment: WST-1 cell growth, wild type and mutated ALK transfectants together; assay type: cell-based; details: both wild type and mutated ALK transfectants
From the text: The full-length cDNA of ALK-wild type was inserted into pCDNA3.0 vector by restriction sites Hind III and Not I. All ALK mutations were generated from the template of pCDNA3.0-ALK-wild type full-length construct using site-directed mutagenesis. H1299 and NIH3T3 cells were maintained in Dulbecco's Modified Eagle Medium (DMEM) medium supplemented with 10% Fetal Bovine Serum (FBS) and streptomycin. The H1299 and NIH3T3 cells were transfected with the expression constructs by Lipofectamine 2000 (Invitrogen) and further selected by G418 to establish mixtures of ALK-expressed transfectants.
For analysis of cell growth, a total of 1×10^3 cells/well was seeded in 96-well plate. After different culturing time, 10 μl/well WST-1 reagent (Roche Diagnostics) was added for reaction at 37° C. for 50 minutes. The absorbance at 450 nm was measured.

H1299 cells [5] = experiment: Anchorage-independent growth (soft agar) assay; assay type: cell-based; details: compared with DMSO control
Experimental: A total of 2×10^4 H1299 or NIH3T3 transfectants were mixed in a final 0.3% agarose and plated onto the 60-mm plate containing 0.5% agarose. These cells were further cultured in 5% CO2 incubator at 37° C. for one month. The plates were dehydrated at room temperature and then stained with 0.3% crystal violet for visualizing colonies. The colony numbers were counted by using Image-pro plus analysis program.

phosphorylated-Y1604 ALK [6] = experiment: Western blotting of phosphorylated-Y1604 ALK expression in H1299 transfectants; assay type: cell-based; details: both wild type and mutated ALK transfectants
From the text: For Western blotting analysis, the membranes were probed with specific antibodies against HA (Covance), phospho-tyrosine (4G10; Upstate Biotechnology), STAT3 (sc-482; Santa Cruz) and α-tubulin (DM1A; NeoMarkers). The phospho-ALK (Tyr1604), phospho-Akt ([…]), phospho-STAT3 (Tyr705), phospho-ERK (Thr202/Tyr204), Akt and ERK antibodies were purchased from Cell Signaling. For IHC staining assay, the tissue sections were stained with specific antibodies against phospho-ALK (pY1604; Epitomics), ALK (4204-1; Epitomics), phospho-STAT3 (Tyr705, D3A7; Cell Signaling) and phospho-Akt (Ser473, 736E11; Cell Signaling). The ALK inhibitor WHI-P154 was purchased from Calbiochem.
Cells were lysed in RIPA buffer (200 mM Tris, 150 mM NaCl, 1 mM EDTA, 1% NP40, 1 mM PMSF, 1 mM DTT) with addition of 1× phosphatase inhibitor cocktail set II from Calbiochem and 1× cocktails of protease inhibitor from Roche. The protein concentration was measured by BCA protein assay kit (Pierce Chemical). The equal amounts of cell lysates were subjected to SDS-PAGE, transferred to NC membranes, and then probed with specific antibody for protein detection. For co-immunoprecipitation assay, the equal amounts of cell lysates were firstly incubated with anti-HA antibody for one hour and subsequently reacted with protein A/G for overnight. […]

H1299 cells [7] = experiment: Boyden chamber cell migration assay; assay type: cell-based; details: compared with DMSO control
Experimental: The cell migration capability was examined by Boyden chamber assay. Briefly, a total of 2×10^4 H1299 or NIH3T3 transfectants were inoculated into the cell migration insert (BD Biosciences) containing 350 μl DMEM medium alone, and the insert was placed into the well containing 750 μl complete DMEM medium in 24-well plate. After 24 hours incubation, the migrated cells were fixed with 100% methanol and stained by Giemsa's solution (Merck). The numbers of migrated cells were counted by using Image-pro plus analysis program.

COc1cc2ncnc(Nc3ccc(O)c(Br)c3)c2cc1OC [WHI-P154]
tumor growth [1]: significant reduction of tumor growth
survival ([2]; mice with H694R and E1384K mutations): survive as long as control mice
lung metastasis ([2]; mutation-bearing mice): significantly suppresses lung metastasis
expression of phosphorylated-Y1604 ALK in tumor sections (phosphorylated-Y1604 ALK [3]): significant lower expression of phosphorylated-Y1604 ALK
inhibition of cell growth [4]: dose-dependent inhibition
inhibition of soft agar growth (H1299 cells [5]): profound inhibition
inhibition of expression of phosphorylated-Y1604 ALK (phosphorylated-Y1604 ALK [6]): dose-dependent inhibition
inhibition of cell migration (H1299 cells [7]): profound inhibition
